Source: ChEMBL document CHEMBL1153192, “Macrocyclic BACE-1 inhibitors acutely reduce Abeta in brain after po application” (Bioorg Med Chem Lett, 2010)

Assays:
MDR1 = assay: Apparent permeability from apical to basolateral side of MDCK cells expressing MDR1; format: ADME, cell-based, Canis lupus familiaris; settings: dog
[1] = Drug level in APP50/16 tg mouse brain at 60 umol/kg, po after 4 hrs; format: ADME, organism-based; settings: APP50/16 transgenic, read-out: Drug uptake
[2] = Dissociation constant, pKa of the compound; format: physicochemical
[3] = Plasma concentration in APP50/16 tg mouse at 60 umol/kg, po after 4 hrs; format: ADME, organism-based; settings: APP50/16 transgenic

Papp A→B (MDR1) [×10⁻⁶ cm/s]	concentration at 4 h [1] [nM]	pKa [2]	concentration at 4 h [3] [nM]	Structure (SMILES)
0.95				CCCS(=O)(=O)N(C)c1cc2cc(c1)C(=O)N[C@H]([C@H](O)CNCc1cccc(C(C)C)c1)Cc1cccc(c1)OCCCCN2
3.1	250	7.3	1200	COCc1cc2cc(c1)C(=O)N[C@H]([C@H](O)CNC1(c3cccc(C(C)C)c3)CC1)Cc1cccc(c1)OCCCCN2
2				CC(C)c1cccc(CNC[C@@H](O)[C@@H]2Cc3cccc(c3)OCCCCNc3cccc(c3)C(=O)N2)c1
0.16				COCc1cc2cc(c1)C(=O)N[C@H]([C@H](O)CNCc1cccc(C(C)C)c1)Cc1cccc(c1)OCCCCN2
1.3				COCc1cc2cc(c1)C(=O)N[C@H]([C@H](O)CNC(COC)c1cccc(C(C)(C)C)c1)Cc1cccc(c1)OCCCCN2 (stereo not given in full)
5.6		3.8		COCc1cc2cc(c1)C(=O)N[C@H]([C@H](O)CNC(c1cccc(C(C)(C)C)c1)C(F)(F)F)Cc1cccc(c1)OCCCCN2 (stereo not given in full)
1.3	40		30	Cc1cc2cc(n1)OCCCCOc1cccc(c1)C[C@@H]([C@H](O)CNCc1cccc(C(C)C)c1)NC2=O
3.8		7.2		COCc1cc2cc(c1)C(=O)N[C@H]([C@H](O)CNC(CF)c1cccc(C(C)(C)C)c1)Cc1cccc(c1)OCCCCN2 (stereo not given in full)
1.8				COCc1cc2cc(c1)C(=O)N[C@H]([C@H](O)CNC(C)(C)c1cccc(C(C)C)c1)Cc1cccc(c1)OCCCCN2
0.28				CCCS(=O)(=O)N(C)c1cc2cc(c1)C(=O)N[C@H]([C@H](O)CNC1(c3cccc(C(C)C)c3)CC1)Cc1cccc(c1)OCCCCN2
4.9	540		2200	COCc1cc2cc(n1)OCCCCOc1cccc(c1)C[C@@H]([C@H](O)CNC1(c3cccc(C(C)C)c3)CC1)NC2=O
0.17				Cc1cc2cc(n1)NCCCCOc1cccc(c1)C[C@@H]([C@H](O)CNCc1cccc(C(C)C)c1)NC2=O
1.2				COCc1cc2cc(c1)C(=O)N[C@H]([C@H](O)CNC1(c3cccc(C(C)(C)C)c3)CCC1)Cc1cccc(c1)OCCCCN2
4	320		3000	Cc1cc2cc(n1)OCCCCOc1cccc(c1)C[C@@H]([C@H](O)CNC1(c3cccc(C(C)C)c3)CC1)NC2=O
1.3		8.5		Cc1cc2cc(n1)OCCCCOc1cccc(c1)C[C@@H]([C@H](O)CNC(C)c1cccc(C(C)C)c1)NC2=O (stereo not given in full)
0.4				CC(C)c1cccc(C2(NC[C@@H](O)[C@@H]3Cc4cccc(c4)OCCCCOc4cc(cc(N5CCCC5=O)c4)C(=O)N3)CC2)c1
1.4				COCc1cc2cc(c1)C(=O)N[C@H]([C@H](O)CNC1(c3cccc(C(C)(C)C)c3)CCCC1)Cc1cccc(c1)OCCCCN2
0.11				CC(C)c1cccc(CNC[C@@H](O)[C@@H]2Cc3cccc(c3)OCCCCNc3cc(cc(N4C=COC4)c3)C(=O)N2)c1
